Consider 16 compounds from patent US20230022157A1 (Achillion Pharmaceuticals, Inc., priority 2018, published 2023).

This assay has as its target T1, Human Factor D (Homo sapiens, UniProt P00746).
T1 construct: purified from human serum; purchased Complement Technology, Inc; host or cells: human serum (natural protein, not recombinant)
The assay can be described thus: Human Factor D Assay. The format is biochemical. Particulars: Human Factor D 80 nM, substrate Z-L-Lys-SBzl, read-out: IC50 (Stars). Put shortly:
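Serum-purified human factor D (80 nM final) preincubated 5 min at room temperature with test compound in 50 mM Tris, 1M NaCl, pH 7.5. Z-L-Lys-SBzl substrate and DTNB then added, each at 100 μM final. IC50 from nonlinear regression of reaction rate against compound concentration.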

By IC50 is commonly meant the concentration that gives 50% inhibition.

Where two headings read alike, the source gives them in different places.

T1 sequence (P00746 26-253): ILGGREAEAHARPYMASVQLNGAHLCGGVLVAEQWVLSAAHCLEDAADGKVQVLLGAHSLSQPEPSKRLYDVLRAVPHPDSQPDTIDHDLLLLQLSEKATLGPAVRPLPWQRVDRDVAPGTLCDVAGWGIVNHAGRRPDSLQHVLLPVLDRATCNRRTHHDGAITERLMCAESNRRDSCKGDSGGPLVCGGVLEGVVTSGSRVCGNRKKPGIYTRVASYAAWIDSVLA

For the compound `CC(=O)c1nn(CC(=O)N2[C@H](C(=O)NC3CCC4(CC3)OCCO4)C[C@@]3(C)C[C@@H]23)c2c(C)cc(-c3cnc(C)nc3)cc12` [Compound 138, (1R,3S,5R)-2-{2-[3-acetyl-7-methyl-5-(2-methylpyrimidin-5-yl)indazol-1-yl]acetyl}-N-{1,4-dioxaspiro[4.5]decan-8-yl}-5-methyl-2-azabicyclo[3.1.0]hexane-3-carboxamide], the IC50 (Table 2) is more than 10000 nM.
As to `COCc1ccc(Br)nc1NC(=O)[C@@H]1C[C@@]2(C)C[C@H]2N1C(=O)Cn1cc(C(C)=O)c2cc(-c3cnc4cc(C)nn4c3)cc(C)c21` [Compound 215, (1R,3S,5R)-2-(2-(3-acetyl-7-methyl-5-(2-methylpyrazolo[1,5-a]pyrimidin-6-yl)-1H-indol-1-yl)acetyl)-N-(6-bromo-3-(methoxymethyl)pyridin-2-yl)-5-methyl-2-azabicyclo[3.1.0]hexane-3-carboxamide], the IC50 (Table 2) is less than 1000 nM.
Turning to `Cc1ncc(-c2cc3c(C(N)=O)nn(CC(=O)N4[C@H](C(=O)Nc5nc(Br)ccc5C5CC5)C[C@@]5(C)C[C@@H]45)c3c(C)n2)cn1` [Compound 112, 1-{2-[3-(6-Bromo-3-cyclopropyl-pyridin-2-ylcarbamoyl)-5-methyl-2-aza-bicyclo[3.1.0]hex-2-yl]-2-oxo-ethyl}-7-methyl-5-(2-methyl-pyrimidin-5-yl)-1H-pyrazolo[3,4-c]pyridine-3-carboxylic acid amide], under “Table 2”, the IC50 is less than 1000 nM.
For the compound `CC(=O)c1nn(CC(=O)N2[C@H](C(=O)Nc3ccc(F)c(Br)n3)C[C@@]3(C)C[C@@H]23)c2c(C)cc(-c3cnc(C(C)O)nc3)cc12` (stereo partly drawn) [Compound 125, (1R,3S,5R)-2-(2-(3-acetyl-5-(2-(1-hydroxyethyl)pyrimidin-5-yl)-7-methyl-11H-indazol-1-yl)acetyl)-N-(6-bromo-5-fluoropyridin-2-yl)-5-methyl-2-azabicyclo[3.1.0]hexane-3-carboxamide], the IC50 (Table 2) is less than 1000 nM.
Turning to `CC(=O)c1nn(CC(=O)N2[C@H](C(=O)NCCc3ccccc3Cl)C[C@@]3(C)C[C@@H]23)c2c(C)cc(-c3cnc(C)nc3)cc12` [Compound 3, (1R,3S,5R)-2-(2-(3-Acetyl-7-methyl-5-(2-methylpyrimidin-5-yl)-1H-indazol-1-yl)acetyl)-N-(2-chlorophenethyl)-5-methyl-2-azabicyclo[3.1.0]hexane-3-carboxamide], the half-inhibitory concentration (IC50) (assay of Example 3) was less than 1000 nM.
In the case of `CC(=O)c1nn(CC(=O)N2[C@H](C(=O)Nc3nc(C(F)(F)F)ccc3C)C[C@@]3(C)C[C@@H]23)c2c(C)cc(-c3cnc(CO)nc3)cc12` [Compound 54, (1R,3S,5R)-2-(2-(3-acetyl-5-(2-(hydroxymethyl)pyrimidin-5-yl)-7-methyl-1H-indazol-1-yl)acetyl)-5-methyl-N-(3-methyl-6-(trifluoromethyl)pyridin-2-yl)-2-azabicyclo[3.1.0]hexane-3-carboxamide], the IC50 (Table 2) is less than 1000 nM.
On the same count and under the same terms, as for `COC(=O)c1ncc(-c2cc(C)c3c(c2)c(C(C)=O)nn3CC(=O)N2[C@H](C(=O)Nc3cncc(Br)n3)C[C@@]3(C)C[C@@H]23)cn1` [Compound 42, Methyl 5-(3-acetyl-1-(2-((1R,3S,5R)-3-((6-bromopyrazin-2-yl)carbamoyl)-5-methyl-2-azabicyclo[3.1.0]hexan-2-yl)-2-oxoethyl)-7-methyl-1H-indazol-5-yl)pyrimidine-2-carboxylate], the figure is less than 1000 nM; as for `CC(=O)c1nn(CC(=O)N2[C@H](C(=O)Nc3nc(Br)c(F)cc3C)C[C@@]3(C)C[C@@H]23)c2c(C)cc(-c3cnc(C(C)O)nc3)cc12` (stereo partly drawn) [Compound 96, (1R,3S,5R)-2-(2-(3-acetyl-5-(2-(1-hydroxyethyl)pyrimidin-5-yl)-7-methyl-11H-indazol-1-yl)acetyl)-N-(6-bromo-5-fluoro-3-methylpyridin-2-yl)-5-methyl-2-azabicyclo[3.1.0]hexane-3-carboxamide], less than 1000 nM; as for `CC(=O)c1ncc(-c2cc(C)c3c(c2)c(C(C)=O)nn3CC(=O)N2[C@H](C(=O)Nc3nc(Br)ccc3C)C[C@@]3(C)C[C@@H]23)cn1` [Compound 58], less than 1000 nM.
In the case of `CC(=O)c1cn(CC(=O)N2[C@H](C(=O)Nc3cncc(Br)n3)C[C@@]3(C)C[C@@H]23)c2c(C)cc(-c3cnc(CO)nc3)cc12` [Compound 77, (1R,3S,5R)-2-(2-(3-acetyl-5-(2-(hydroxymethyl)pyrimidin-5-yl)-7-methyl-1H-indol-1-yl)acetyl)-N-(6-bromopyrazin-2-yl)-5-methyl-2-azabicyclo[3.1.0]hexane-3-carboxamide], the IC50 (Table 2) is less than 1000 nM.
As for `CCC[C@@H](C)NC(=O)[C@@H]1C[C@@]2(C)C[C@H]2N1C(=O)Cn1nc(C(C)=O)c2cc(-c3cnc(C)nc3)ccc21` [Compound 16, (1R,3S,5R)-2-(2-(3-Acetyl-5-(2-methylpyrimidin-5-yl)-1H-indazol-1-yl)acetyl)-5-methyl-N—((R)-pentan-2-yl)-2-azabicyclo[3.1.0]hexane-3-carboxamide], the IC50 (assay of Example 3) is less than 1000 nM.
As for `CC(=O)c1nn(CC(=O)N2[C@H](C(=O)Nc3nc(Br)c(F)cc3C)C[C@@]3(C)C[C@@H]23)c2c(C)cc(-c3cnc(CO)cn3)cc12` [Compound 131, (1R,3S,5R)-2-(2-(3-acetyl-5-(5-(hydroxymethyl)pyrazin-2-yl)-7-methyl-1H-indazol-1-yl)acetyl)-N-(6-bromo-5-fluoro-3-methylpyridin-2-yl)-5-methyl-2-azabicyclo[3.1.0]hexane-3-carboxamide], the IC50 (Table 2) was less than 1000 nM.
`CC(=O)c1nn(CC(=O)N2[C@H](C(=O)N[C@@H]3CCCC[C@@H]3C)C[C@@]3(C)C[C@@H]23)c2c(C)cc(-c3cnc(C)nc3)cc12` [Compound 190, (1R,3S,5R)-2-{2-[3-acetyl-7-methyl-5-(2-methylpyrimidin-5-yl)indazol-1-yl]acetyl}-5-methyl-N-[(1R,2S)-2-methylcyclohexyl]-2-azabicyclo[3.1.0]hexane-3-carboxamide]: for the setting “Table 2”, the IC50 is less than 1000 nM.
`CC(=O)c1nn(CC(=O)N2[C@H]3CC[C@H](C3)[C@H]2C(=O)Nc2nc(Br)ccc2C)c2c(C)cc(-c3cnc(CO)nc3)cc12` [Compound 100, (1S,3S,4R)-2-(2-(3-acetyl-5-(2-(hydroxymethyl)pyrimidin-5-yl)-7-methyl-1H-indazol-1-yl)acetyl)-N-(6-bromo-3-methylpyridin-2-yl)-2-azabicyclo[2.2.1]heptane-3-carboxamide]: the half-maximal inhibitory concentration (IC50) (Table 2) is less than 1000 nM.
Consider `CC(=O)c1nn(CC(=O)N2C[C@H](F)C[C@H]2C(=S)Nc2cccc(Br)n2)c2ccc(-c3cnc(C)nc3)cc12` [Compound 36, (2S,4R)-1-(2-(3-Acetyl-5-(2-methylpyrimidin-5-yl)-1H-indazol-1-yl)acetyl)-N-(6-bromopyridin-2-yl)-4-fluoropyrrolidine-2-carbothioamide], for which the IC50 (assay of Example 3) is less than 1000 nM.
With `CC(=O)c1cn(CC(=O)N2[C@H](C(=O)Nc3cncc(Br)n3)C[C@@]3(C)C[C@@H]23)c2c(C)cc(-c3cnc(CF)nc3)cc12` [Compound 218, (1R,3S,5R)-2-(2-(3-acetyl-5-(2-(fluoromethyl)pyrimidin-5-yl)-7-methyl-1H-indol-1-yl)acetyl)-N-(6-bromopyrazin-2-yl)-5-methyl-2-azabicyclo[3.1.0]hexane-3-carboxamide], the IC50 (Table 2) was 1000 to 10000 nM.
